In the NIST ThermoML archive (doi:10.1021/je5000132):
± gives the expanded uncertainty stated by the source.

Legend:
[1] = for speed of sound: 100 kPa, Pulse-echo method; for speed of sound / viscosity / mass density: Liquid; for viscosity / mass density: 101 kPa; for viscosity: Concentric cylinders viscometry; for mass density: Vibrating tube method; for surface tension liquid-gas: 294.7 K, Drop volume
[2] = xn = mol fraction of the nth substance listed; details: x2 = 0; for speed of sound: 100 kPa, Pulse-echo method; for speed of sound / viscosity / mass density: Liquid; for viscosity / mass density: 101 kPa; for viscosity: Concentric cylinders viscometry; for mass density: Vibrating tube method; for surface tension liquid-gas: 294.7 K, Drop volume

CCCCCCCCCCCC [dodecane]
speed of sound ([1]; 293.15 K): 1297.6 ± 1.3 m/s
viscosity ([1]; 293.15 K): 1.49 ± 0.019 mPa·s
mass density ([1]; 293.15 K): 748.893 ± 0.46 kg/m3
surface tension liquid-gas [1]: 25.3 ± 0.3 mN/m
speed of sound ([1]; 303.15 K): 1259.3 ± 1.3 m/s
viscosity ([1]; 303.15 K): 1.25 ± 0.019 mPa·s
mass density ([1]; 303.15 K): 741.635 ± 0.46 kg/m3
speed of sound ([1]; 313.15 K): 1221.4 ± 1.3 m/s
viscosity ([1]; 313.15 K): 1.06 ± 0.018 mPa·s
mass density ([1]; 313.15 K): 734.349 ± 0.46 kg/m3
speed of sound ([1]; 323.15 K): 1184.2 ± 1.3 m/s
viscosity ([1]; 323.15 K): 0.916 ± 0.018 mPa·s
mass density ([1]; 323.15 K): 727.038 ± 0.46 kg/m3
speed of sound ([1]; 333.15 K): 1147.5 ± 1.3 m/s
viscosity ([1]; 333.15 K): 0.799 ± 0.017 mPa·s
mass density ([1]; 333.15 K): 719.691 ± 0.46 kg/m3
viscosity ([1]; 343.15 K): 0.704 ± 0.017 mPa·s
mass density ([1]; 343.15 K): 712.2 ± 0.46 kg/m3
viscosity ([1]; 353.15 K): 0.625 ± 0.017 mPa·s
mass density ([1]; 353.15 K): 704.7 ± 0.46 kg/m3
viscosity ([1]; 363.15 K): 0.56 ± 0.017 mPa·s
mass density ([1]; 363.15 K): 697.1 ± 0.46 kg/m3
viscosity ([1]; 373.15 K): 0.506 ± 0.017 mPa·s
mass density ([1]; 373.15 K): 689.6 ± 0.46 kg/m3

CC(CC(C)(C)C)CC(C)(C)CC(C)(C)C (configuration not stated) [2,2,4,4,6,8,8-heptamethylnonane]
speed of sound ([1]; 293.15 K): 1285.7 ± 2.2 m/s
viscosity ([1]; 293.15 K): 3.7 ± 0.043 mPa·s
mass density ([1]; 293.15 K): 784.457 ± 0.69 kg/m3
surface tension liquid-gas [1]: 24 ± 0.3 mN/m
speed of sound ([1]; 303.15 K): 1248.5 ± 2.2 m/s
viscosity ([1]; 303.15 K): 2.92 ± 0.035 mPa·s
mass density ([1]; 303.15 K): 777.761 ± 0.68 kg/m3
speed of sound ([1]; 313.15 K): 1211.8 ± 2.2 m/s
viscosity ([1]; 313.15 K): 2.37 ± 0.03 mPa·s
mass density ([1]; 313.15 K): 771.044 ± 0.68 kg/m3
speed of sound ([1]; 323.15 K): 1176 ± 2.2 m/s
viscosity ([1]; 323.15 K): 1.95 ± 0.027 mPa·s
mass density ([1]; 323.15 K): 764.316 ± 0.67 kg/m3
speed of sound ([1]; 333.15 K): 1140.8 ± 2.2 m/s
viscosity ([1]; 333.15 K): 1.63 ± 0.024 mPa·s
mass density ([1]; 333.15 K): 757.571 ± 0.67 kg/m3
viscosity ([1]; 343.15 K): 1.39 ± 0.022 mPa·s
mass density ([1]; 343.15 K): 750.7 ± 0.7 kg/m3
viscosity ([1]; 353.15 K): 1.19 ± 0.021 mPa·s
mass density ([1]; 353.15 K): 743.8 ± 0.7 kg/m3
viscosity ([1]; 363.15 K): 1.04 ± 0.02 mPa·s
mass density ([1]; 363.15 K): 736.8 ± 0.7 kg/m3
viscosity ([1]; 373.15 K): 0.914 ± 0.019 mPa·s
mass density ([1]; 373.15 K): 729.9 ± 0.7 kg/m3

CC(CC(C)(C)C)CC(C)(C)C [2,2,4,6,6-pentamethylheptane]
speed of sound ([1]; 293.15 K): 1203.6 ± 2.2 m/s
surface tension liquid-gas [1]: 21.8 ± 0.3 mN/m
speed of sound ([1]; 303.15 K): 1164.8 ± 2.2 m/s
speed of sound ([1]; 313.15 K): 1126.7 ± 2.2 m/s
speed of sound ([1]; 323.15 K): 1089.3 ± 2.2 m/s
speed of sound ([1]; 333.15 K): 1052.5 ± 2.2 m/s

CCCCCCCCCCCC [dodecane] + CC(CC(C)(C)C)CC(C)(C)C
speed of sound ([2]; 293.15 K): 1297.6 ± 1.3 m/s
viscosity ([2]; 293.15 K): 1.49 ± 0.019 mPa·s
mass density ([2]; 293.15 K): 748.893 ± 0.55 kg/m3
surface tension liquid-gas [2]: 25.3 ± 0.3 mN/m
speed of sound ([2]; 303.15 K): 1259.3 ± 1.3 m/s
viscosity ([2]; 303.15 K): 1.25 ± 0.019 mPa·s
mass density ([2]; 303.15 K): 741.635 ± 0.55 kg/m3
speed of sound ([2]; 313.15 K): 1221.4 ± 1.3 m/s
viscosity ([2]; 313.15 K): 1.06 ± 0.018 mPa·s
mass density ([2]; 313.15 K): 734.349 ± 0.55 kg/m3
speed of sound ([2]; 323.15 K): 1184.2 ± 1.3 m/s
viscosity ([2]; 323.15 K): 0.916 ± 0.018 mPa·s
mass density ([2]; 323.15 K): 727.038 ± 0.55 kg/m3
speed of sound ([2]; 333.15 K): 1147.5 ± 1.3 m/s
viscosity ([2]; 333.15 K): 0.799 ± 0.017 mPa·s
mass density ([2]; 333.15 K): 719.691 ± 0.55 kg/m3
viscosity ([2]; 343.15 K): 0.704 ± 0.017 mPa·s
mass density ([2]; 343.15 K): 712.2 ± 0.55 kg/m3
viscosity ([2]; 353.15 K): 0.625 ± 0.017 mPa·s
mass density ([2]; 353.15 K): 704.7 ± 0.55 kg/m3
viscosity ([2]; 363.15 K): 0.56 ± 0.017 mPa·s
mass density ([2]; 363.15 K): 697.1 ± 0.55 kg/m3
viscosity ([2]; 373.15 K): 0.506 ± 0.017 mPa·s
mass density ([2]; 373.15 K): 689.6 ± 0.55 kg/m3

CCCCCCCCCCCC [dodecane] + CC(CC(C)(C)C)CC(C)(C)CC(C)(C)C
speed of sound ([2]; 293.15 K): 1297.6 ± 1.3 m/s
viscosity ([2]; 293.15 K): 1.49 ± 0.019 mPa·s
mass density ([2]; 293.15 K): 748.893 ± 1 kg/m3
surface tension liquid-gas [2]: 25.3 ± 0.3 mN/m
speed of sound ([2]; 303.15 K): 1259.3 ± 1.3 m/s
viscosity ([2]; 303.15 K): 1.25 ± 0.019 mPa·s
mass density ([2]; 303.15 K): 741.635 ± 1 kg/m3
speed of sound ([2]; 313.15 K): 1221.4 ± 1.3 m/s
viscosity ([2]; 313.15 K): 1.06 ± 0.018 mPa·s
mass density ([2]; 313.15 K): 734.349 ± 1 kg/m3
speed of sound ([2]; 323.15 K): 1184.2 ± 1.3 m/s
viscosity ([2]; 323.15 K): 0.916 ± 0.018 mPa·s
mass density ([2]; 323.15 K): 727.038 ± 1 kg/m3
speed of sound ([2]; 333.15 K): 1147.5 ± 1.3 m/s
viscosity ([2]; 333.15 K): 0.799 ± 0.017 mPa·s
mass density ([2]; 333.15 K): 719.691 ± 1 kg/m3
viscosity ([2]; 343.15 K): 0.704 ± 0.017 mPa·s
mass density ([2]; 343.15 K): 712.2 ± 1 kg/m3
viscosity ([2]; 353.15 K): 0.625 ± 0.017 mPa·s
mass density ([2]; 353.15 K): 704.7 ± 1 kg/m3
viscosity ([2]; 363.15 K): 0.56 ± 0.017 mPa·s
mass density ([2]; 363.15 K): 697.1 ± 1 kg/m3
viscosity ([2]; 373.15 K): 0.506 ± 0.017 mPa·s
mass density ([2]; 373.15 K): 689.6 ± 1 kg/m3
